# Earlier results as cited in patent US8729014B2, “Specific HCV NS3 protease inhibitors” (RFS Pharma, LLC, priority 2010, dated 2014).
# Test system: HepG2 cells
# Conditions: HepG2 cells incubated with 10 μM; cited from earlier work
smiles,measurement,value
"O=c1[nH]c(=O)n([C@@H]2O[C@H](CO)[C@@H](O)[C@@H]2F)cc1I [fialuridine, 1,2′-deoxy-2′-fluoro-1-D-arabinofuranosly-5-iodo-uracil]",morphological changes in mitochondria (electron micrographs),enlarged mitochondria with morphological changes consistent with mitochondrial dysfunction
